The values that follow come from patent US20040171681A1, “Medicines and medicinal kits” (priority 2001, published 2004).

The test system of the assay is ocular hypertension models. Put plainly: Test Example 1: ocular tension in rabbit ocular hypertension models (hypertonic saline) after eye drop solutions. The assay is classed as in vivo, Domesticated rabbits. To be noted: rabbits given 100 μl 5 w/v % hypertonic saline, 50 μl eye drop solution, mean ± standard error. Here is the method:
Domesticated rabbits intravenously administered with 100 μl of a 5 w/v % hypertonic saline solution were used as ocular hypertension models. After intravenously administering the hypertonic saline solution, 50 μl of each of the eye drop solutions were administered and the ocular tension was measured 60 and 120 minutes thereafter.

`CC(C)OC(=O)CCC/C=C\C[C@@H]1[C@@H](CC[C@@H](O)CCc2ccccc2)[C@H](O)C[C@@H]1O` [Latanoprost, latanoprost]: the “Ocular tension change (mmHg) 60 minutes” value (60 minutes after) came out at 22.7 ± 1.2 mmHg. Also, the “Ocular tension change (mmHg) 120 minutes” value (120 minutes after) was found to be 9.8 ± 1.9 mmHg.
